In BindingDB's records for doi:10.1016/j.bmcl.2019.01.031 (Merck, 2019):

Experiments:
[1] = Inhibition of NS5A in HCV genotype 2a assessed as decrease in viral replication
[2] = Inhibition of NS5A in HCV genotype 1b assessed as decrease in viral replication
[3] = Inhibition of NS5A in HCV genotype 1a assessed as decrease in viral replication
[4] = Inhibition of NS5A in HCV genotype 3a assessed as decrease in viral replication
[5] = Inhibition of NS5A in HCV genotype 2b assessed as decrease in viral replication
[6] = Inhibition of NS5A Y93H mutant in HCV genotype 1a assessed as decrease in viral replication
[7] = Inhibition of NS5A in HCV genotype 4a assessed as decrease in viral replication
[8] = Inhibition of NS5A L31V mutant in HCV genotype 1a assessed as decrease in viral replication

For `COC(=O)N[C@H](C(=O)N1CCC[C@H]1c1nc(-c2ccc3c(c2)O[C@@H](c2ccccc2)n2c-3cc3cc(-c4c[nH]c([C@@H]5CCCN5C(=O)[C@@H](NC(=O)OC)C(C)C)n4)ccc32)c[nH]1)C(C)C` [Elbasvir], the EC50 [1] was 0.003 nM, the EC50 [2] was 0.003 nM and the EC50 [3] was 0.004 nM. It also gave an EC50 [4] of 0.02 nM.

In the case of `COC(=O)N[C@H](C(=O)N1C[C@H](F)C[C@H]1c1ncc(-c2ccc3c(ccc4oc5cc(-c6cnc([C@@H]7C[C@@H](F)CN7C(=O)[C@@H](NC(=O)OC)C7CCOCC7)[nH]6)ccc5c(=O)c43)c2)[nH]1)C1CCOCC1`, the EC50 [5] is reported as 3.5 nM, the EC50 [3] is reported as 0.084 nM and the EC50 [4] is reported as 5.8 nM. The EC50 [6] was 0.18 nM.

Work on `CCC1c2ccc(-c3cnc([C@@H]4CCCN4C(=O)[C@@H](NC(=O)OC)C(C)C)[nH]3)cc2Oc2ccc(-c3cnc([C@@H]4CCCN4C(=O)[C@@H](NC(=O)OC)C(C)C)[nH]3)cc21` (some centres not stated) yielded an EC50 [1] of 0.005 nM, an EC50 [2] of 0.004 nM and an EC50 [3] of 0.02 nM. It also gave an EC50 [4] of 0.07 nM and an EC50 [6] of 24 nM.

For `COC(=O)N[C@H](C(=O)N1CCC[C@H]1c1ncc(-c2ccc3c(=O)c4cc(-c5cnc([C@@H]6CCCN6C(=O)[C@@H](NC(=O)OC)C(C)C)[nH]5)ccc4oc3c2)[nH]1)C(C)C`, the EC50 [1] was 0.1 nM, the EC50 [2] was 0.002 nM and the EC50 [3] was 0.01 nM. It also gave an EC50 [6] of 1730 nM.

With `COC(=O)N[C@H](C(=O)N1CCC[C@H]1c1ncc(-c2ccc3c(ccc4c(=O)c5cc(-c6cnc([C@@H]7CCCN7C(=O)[C@@H](NC(=O)OC)C(C)C)[nH]6)ccc5oc43)c2)[nH]1)C(C)C` the EC50 [3] was 0.02 nM and the EC50 [6] was 66 nM.

For `COC(=O)N[C@H](C(=O)N1CCC[C@H]1c1ncc(-c2ccc3c(ccc4oc5cc(-c6cnc([C@@H]7CCCN7C(=O)[C@@H](NC(=O)OC)C7CCOCC7)[nH]6)ccc5c(=O)c43)c2)[nH]1)C1CCOCC1`, the EC50 [5] was 0.48 nM, the EC50 [3] was 0.041 nM and the EC50 [4] was 0.72 nM. For the same molecule, the EC50 [6] was 2 nM.

`CC[C@@H]1c2ccc(-c3cnc([C@@H]4CCCN4C(=O)[C@@H](NC(=O)OC)C(C)C)[nH]3)cc2Oc2ccc3cc(-c4cnc([C@@H]5CCCN5C(=O)[C@@H](NC(=O)OC)C(C)C)[nH]4)ccc3c21` showed an EC50 [5] of 13 nM, an EC50 [3] of 0.0027 nM and an EC50 [4] of 1.7 nM. The EC50 [6] was 15 nM.

With `COC(=O)N[C@H](C(=O)N1CCC[C@H]1c1ncc(-c2ccc3c(c2)Oc2ccc4cc(-c5cnc([C@@H]6CCCN6C[C@@H](NC(=O)OC)C6CCOCC6)[nH]5)ccc4c2[C@@H]3C)[nH]1)C1CCOCC1` the EC50 [5] was 0.5 nM, the EC50 [7] was 0.004 nM and the EC50 [8] was 0.03 nM. The EC50 [2] was 0.006 nM, the EC50 [3] was 0.005 nM and the EC50 [4] was 0.06 nM. It also gave an EC50 [6] of 0.5 nM.

In the case of `COC(=O)N[C@H](C(=O)N1CCC[C@H]1c1ncc(-c2ccc3c(F)c4oc5ccc(-c6cnc([C@@H]7CCCN7C(=O)[C@@H](NC(=O)OC)C(C)C)[nH]6)cc5c(=O)c4cc3c2)[nH]1)C(C)C`, the EC50 [5] is reported as greater than 100 nM, the EC50 [2] is reported as greater than 1 nM and the EC50 [3] is reported as greater than 1 nM. For the same molecule, the EC50 [4] was greater than 1 nM and the EC50 [6] was greater than 100 nM.

For `COC(=O)N[C@H](C(=O)N1CCC[C@H]1c1ncc(-c2ccc3c(ccc4oc5ccc(-c6cnc([C@@H]7CCCN7C(=O)[C@@H](NC(=O)OC)C(C)C)[nH]6)cc5c(=O)c43)c2)[nH]1)C(C)C`, the EC50 [5] was greater than 100 nM, the EC50 [2] was 0.1 nM and the EC50 [3] was 0.2 nM. The EC50 [4] was greater than 1 nM and the EC50 [6] was greater than 100 nM.

In the case of `CC[C@H]1c2ccc(-c3cnc([C@@H]4CCCN4C(=O)[C@@H](NC(=O)OC)C4CCOCC4)[nH]3)cc2Oc2ccc3cc(-c4cnc([C@@H]5CCCN5C[C@@H](NC(=O)OC)C5CCOCC5)[nH]4)ccc3c21`, the EC50 [3] is reported as 0.004 nM, the EC50 [4] is reported as 0.03 nM and the EC50 [6] is reported as 0.2 nM.

`COC(=O)N[C@H](C(=O)N1CCC[C@H]1c1ncc(-c2ccc3c(c2)Oc2ccc4cc(-c5cnc([C@@H]6CCCN6C[C@@H](NC(=O)OC)C6CCOCC6)[nH]5)ccc4c2C3(C)C)[nH]1)C1CCOCC1` gave an EC50 [5] of 0.3 nM, an EC50 [7] of 0.006 nM and an EC50 [2] of 0.004 nM. For the same molecule, the EC50 [3] was 0.002 nM, the EC50 [4] was 0.08 nM and the EC50 [6] was 0.7 nM.

Work on `COC(=O)N[C@H](C(=O)N1CCC[C@H]1c1ncc(-c2ccc3c(c2)C(C)c2ccc4cc(-c5cnc([C@@H]6CCCN6C(=O)[C@@H](NC(=O)OC)C(C)C)[nH]5)ccc4c2O3)[nH]1)C(C)C` (some centres not stated) yielded an EC50 [3] of 0.0057 nM and an EC50 [6] of 49 nM.

Molecule `COC(=O)N[C@H](C(=O)N1CCC[C@H]1c1ncc(-c2ccc3c(c2)Oc2ccc4cc(-c5cnc([C@@H]6CCCN6C(=O)[C@@H](NC(=O)OC)C(C)C)[nH]5)ccc4c2C3(C)C)[nH]1)C(C)C` has an EC50 [5] of 11 nM, an EC50 [3] of 0.0029 nM and an EC50 [6] of 18 nM.

`CCC1(CC)c2ccc(-c3cnc([C@@H]4CCCN4C(=O)[C@@H](NC(=O)OC)C(C)C)[nH]3)cc2Oc2cc3ccc(-c4cnc([C@@H]5CCCN5C(=O)[C@@H](NC(=O)OC)C(C)C)[nH]4)cc3cc21` gave an EC50 [5] of 4.5 nM, an EC50 [3] of 0.002 nM and an EC50 [4] of 1.1 nM. For the same molecule, the EC50 [6] was 3.3 nM.

In the case of `CC[C@@H]1c2ccc(-c3cnc([C@@H]4CCCN4C(=O)[C@@H](NC(=O)OC)C4CCOCC4)[nH]3)cc2Oc2ccc3cc(-c4cnc([C@@H]5CCCN5C[C@@H](NC(=O)OC)C5CCOCC5)[nH]4)ccc3c21`, the EC50 [5] is reported as 0.3 nM, the EC50 [7] is reported as 0.01 nM and the EC50 [2] is reported as 0.004 nM. It also gave an EC50 [3] of 0.01 nM, an EC50 [4] of 0.2 nM and an EC50 [6] of 0.8 nM.

Work on `COC(=O)N[C@H](C(=O)N1CCC[C@H]1c1ncc(-c2ccc3c(ccc4oc5cc(-c6cnc([C@@H]7CCCN7C(=O)[C@@H](NC(=O)OC)C(C)C)[nH]6)ccc5c(=O)c43)c2)[nH]1)C(C)C` yielded an EC50 [5] of 14 nM, an EC50 [2] of 0.003 nM and an EC50 [3] of 0.003 nM. For the same molecule, the EC50 [4] was greater than 1 nM and the EC50 [6] was 18 nM.

For `COC(=O)N[C@H](C(=O)N1CCC[C@H]1c1ncc(-c2ccc3c(c2)Oc2ccc4cc(-c5cnc([C@@H]6CCCN6C[C@@H](NC(=O)OC)C6CCOCC6)[nH]5)ccc4c2[C@H]3C)[nH]1)C1CCOCC1`, the EC50 [5] was 0.02 nM, the EC50 [7] was 0.009 nM and the EC50 [8] was 0.03 nM. The EC50 [2] was 0.004 nM, the EC50 [3] was 0.004 nM and the EC50 [4] was 0.04 nM. The EC50 [6] was 0.4 nM.

For `COC(=O)N[C@H](C(=O)N1C[C@H](F)C[C@H]1c1ncc(-c2ccc3c(ccc4oc5cc(-c6cnc([C@@H]7C[C@@H](F)CN7C(=O)[C@@H](NC(=O)OC)C(C)C)[nH]6)ccc5c(=O)c43)c2)[nH]1)C(C)C`, the EC50 [5] was 90 nM, the EC50 [2] was 0.0045 nM and the EC50 [3] was 0.029 nM. The EC50 [4] was greater than 1 nM and the EC50 [6] was 1.2 nM.

Work on `CCC1(CC)c2ccc(-c3cnc([C@@H]4CCCN4C(=O)[C@@H](NC(=O)OC)C(C)C)[nH]3)cc2Oc2ccc3cc(-c4cnc([C@@H]5CCCN5C(=O)[C@@H](NC(=O)OC)C(C)C)[nH]4)ccc3c21` yielded an EC50 [5] of 3.3 nM, an EC50 [3] of 0.002 nM and an EC50 [4] of 0.58 nM. For the same molecule, the EC50 [6] was 4.1 nM.

Molecule `CCN(CC)[C@@H](C(=O)N1C[C@H](F)C[C@H]1c1ncc(-c2ccc3c(ccc4oc5cc(-c6cnc([C@@H]7C[C@@H](F)CN7C(=O)[C@@H](c7ccccc7)N(CC)CC)[nH]6)ccc5c(=O)c43)c2)[nH]1)c1ccccc1` has an EC50 [5] of 797 nM, an EC50 [3] of 0.31 nM and an EC50 [4] of 0.026 nM. The EC50 [6] was 506 nM.

In the case of `COC(=O)N[C@H](C(=O)N1CCC[C@H]1c1ncc(-c2ccc3c(c2)Oc2ccc4cc(-c5cnc([C@@H]6CCCN6C(=O)[C@@H](NC(=O)OC)C(C)C)[nH]5)ccc4c2[C@@H]3C)[nH]1)C(C)C`, the EC50 [5] is reported as 37 nM, the EC50 [2] is reported as 0.0036 nM and the EC50 [3] is reported as 0.0046 nM. For the same molecule, the EC50 [4] was 1.4 nM and the EC50 [6] was 11 nM.

Molecule `CC[C@H]1c2ccc(-c3cnc([C@@H]4CCCN4C(=O)[C@@H](NC(=O)OC)C(C)C)[nH]3)cc2Oc2ccc3cc(-c4cnc([C@@H]5CCCN5C(=O)[C@@H](NC(=O)OC)C(C)C)[nH]4)ccc3c21` has an EC50 [5] of 0.78 nM, an EC50 [3] of 0.005 nM and an EC50 [4] of 1.1 nM. For the same molecule, the EC50 [6] was 12 nM.

In the case of `COC(=O)N[C@H](C(=O)N1CCC[C@H]1c1ncc(-c2ccc3c(c2)Oc2ccc4cc(-c5cnc([C@@H]6CCCN6C(=O)[C@@H](NC(=O)OC)C(C)C)[nH]5)ccc4c2[C@H]3C)[nH]1)C(C)C`, the EC50 [5] is reported as 1.9 nM, the EC50 [2] is reported as 0.0016 nM and the EC50 [3] is reported as 0.0022 nM. For the same molecule, the EC50 [4] was 0.72 nM and the EC50 [6] was 7.2 nM.
